# Data reported in ChEMBL document CHEMBL1201862, “PubChem BioAssay data set” (2004).
#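 Method: 48-hour compound exposure of cells in 96-well plates, five concentrations, linear interpolation of endpoints. Here, GI50 denotes the concentration required for 50% inhibition of growth.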 Active and inactive are the calls of the source. No stated cut-off is given here; in the data, active = GI50 up to about 1.1 µM and inactive = higher.
# Experiments:
# Experiment in all cases: NCI anticancer screen, dose series, 48 h
# [1] = tested on: UACC-62
# [2] = tested on: U-251
# [3] = tested on: OVCAR-5
# [4] = tested on: ACHN
# [5] = tested on: HL-60
# [6] = tested on: HCT-15
# [7] = tested on: SF-295
# [8] = tested on: RXF 631
# [9] = tested on: A549
# [10] = tested on: SN12C
# [11] = tested on: RPMI-8226
# [12] = tested on: TK-10
# [13] = tested on: A498
# [14] = tested on: CCRF-CEM
# [15] = tested on: LXFL 529
# [16] = tested on: M19-MEL
# [17] = tested on: DLD-1
# [18] = tested on: OVCAR-3
# [19] = tested on: NCI-H23
# [20] = tested on: SNB-19
# [21] = tested on: 786-0
# [22] = tested on: OVCAR-8
# [23] = tested on: SK-MEL-28
# [24] = tested on: XF498
# [25] = tested on: HOP-92
# [26] = tested on: HOP-18
# [27] = tested on: COLO 205
# [28] = tested on: SF-268
# [29] = tested on: HT-29
# [30] = tested on: UO-31
# [31] = tested on: KM-20L2
# [32] = tested on: SK-OV-3
# [33] = tested on: DMS-114
# [34] = tested on: Malme-3M
# [35] = tested on: HOP-62
# [36] = tested on: NCI-H460
# [37] = tested on: NCI-H522
# [38] = tested on: K562
# [39] = tested on: M14
# [40] = tested on: OVCAR-4
# [41] = tested on: IGROV-1
# [42] = tested on: CAKI-1
# [43] = tested on: SNB-78
# [44] = tested on: EKVX
# [45] = tested on: HCC 2998
# [46] = tested on: MOLT-4
# [47] = tested on: SNB-75
# [48] = tested on: SK-MEL-2
# [49] = tested on: KM12
# [50] = tested on: DMS-273
# [51] = tested on: SW-620
# [52] = tested on: UACC-257
# [53] = tested on: SK-MEL-5
# [54] = tested on: LOX IMVI
# [55] = tested on: RXF 393
# [56] = tested on: SF-539
# [57] = tested on: SR
# [58] = tested on: HCT-116
# [59] = tested on: NCI-H226
smiles,measurement,setting,value
Cc1cc(Cl)ccc1NC(=O)C(=O)Cc1nc2ccccc2o1,GI50,[1],> 100 µM (inactive)
same,GI50,[2],> 100 µM (inactive)
same,GI50,[3],> 100 µM (inactive)
same,GI50,[4],> 100 µM (inactive)
same,GI50,[5],> 100 µM (inactive)
same,GI50,[6],> 100 µM
same,GI50,[7],> 100 µM (inactive)
same,GI50,[8],> 100 µM (inactive)
same,GI50,[9],> 100 µM (inactive)
same,GI50,[10],> 100 µM (inactive)
same,GI50,[11],> 100 µM (inactive)
same,GI50,[12],> 100 µM (inactive)
same,GI50,[13],> 100 µM (inactive)
same,GI50,[14],> 100 µM (inactive)
same,GI50,[15],> 100 µM (inactive)
same,GI50,[16],> 100 µM (inactive)
same,GI50,[17],> 100 µM (inactive)
same,GI50,[18],> 100 µM (inactive)
same,GI50,[19],> 100 µM (inactive)
same,GI50,[20],> 100 µM (inactive)
same,GI50,[21],> 100 µM (inactive)
same,GI50,[22],> 100 µM (inactive)
same,GI50,[23],> 100 µM (inactive)
same,GI50,[24],> 100 µM (inactive)
same,GI50,[25],> 100 µM (inactive)
same,GI50,[26],> 100 µM (inactive)
same,GI50,[27],> 100 µM (inactive)
same,GI50,[28],> 100 µM (inactive)
same,GI50,[29],> 100 µM (inactive)
same,GI50,[30],> 100 µM (inactive)
same,GI50,[31],> 100 µM (inactive)
same,GI50,[32],> 100 µM (inactive)
same,GI50,[33],> 100 µM (inactive)
same,GI50,[34],> 100 µM (inactive)
same,GI50,[35],> 100 µM (inactive)
same,GI50,[36],> 100 µM (inactive)
same,GI50,[37],> 100 µM (inactive)
same,GI50,[38],> 100 µM (inactive)
same,GI50,[39],> 100 µM (inactive)
same,GI50,[40],> 100 µM (inactive)
same,GI50,[41],> 100 µM (inactive)
same,GI50,[42],> 100 µM (inactive)
same,GI50,[43],> 100 µM (inactive)
same,GI50,[44],> 100 µM (inactive)
same,GI50,[45],> 100 µM (inactive)
same,GI50,[46],> 100 µM (inactive)
same,GI50,[47],> 100 µM (inactive)
same,GI50,[48],> 100 µM (inactive)
same,GI50,[49],> 100 µM (inactive)
same,GI50,[50],> 100 µM (inactive)
same,GI50,[51],> 100 µM (inactive)
same,GI50,[52],> 100 µM (inactive)
same,GI50,[53],> 100 µM (inactive)
same,GI50,[54],> 100 µM (inactive)
same,GI50,[55],> 100 µM (inactive)
same,GI50,[56],> 100 µM (inactive)
CCCCCCCCCC1CC(=O)OC2=C1C(=O)CCC2 (stereo not drawn),GI50,[57],> 100 µM (inactive)
same,GI50,[1],> 100 µM (inactive)
same,GI50,[2],> 100 µM (inactive)
same,GI50,[3],> 100 µM (inactive)
same,GI50,[4],> 100 µM (inactive)
same,GI50,[5],> 100 µM (inactive)
same,GI50,[7],> 100 µM (inactive)
same,GI50,[8],> 100 µM (inactive)
same,GI50,[9],> 100 µM (inactive)
same,GI50,[10],> 100 µM (inactive)
same,GI50,[11],> 100 µM (inactive)
same,GI50,[12],> 100 µM (inactive)
same,GI50,[14],> 100 µM (inactive)
same,GI50,[15],> 100 µM (inactive)
same,GI50,[16],> 100 µM (inactive)
same,GI50,[17],> 100 µM (inactive)
same,GI50,[18],> 100 µM (inactive)
same,GI50,[19],> 100 µM (inactive)
same,GI50,[20],> 100 µM (inactive)
same,GI50,[21],> 100 µM (inactive)
same,GI50,[22],> 100 µM (inactive)
same,GI50,[23],> 100 µM (inactive)
same,GI50,[24],> 100 µM (inactive)
same,GI50,[25],> 100 µM (inactive)
same,GI50,[26],> 100 µM (inactive)
same,GI50,[27],> 100 µM (inactive)
same,GI50,[28],> 100 µM (inactive)
same,GI50,[29],> 100 µM (inactive)
same,GI50,[30],> 100 µM (inactive)
same,GI50,[31],> 100 µM (inactive)
same,GI50,[32],> 100 µM (inactive)
same,GI50,[33],> 100 µM (inactive)
same,GI50,[34],> 100 µM (inactive)
same,GI50,[35],> 100 µM (inactive)
same,GI50,[58],> 100 µM (inactive)
same,GI50,[36],> 100 µM (inactive)
same,GI50,[37],> 100 µM (inactive)
same,GI50,[38],> 100 µM (inactive)
same,GI50,[39],> 100 µM (inactive)
same,GI50,[40],> 100 µM (inactive)
same,GI50,[59],> 100 µM (inactive)
same,GI50,[41],> 100 µM (inactive)
same,GI50,[42],> 100 µM (inactive)
same,GI50,[43],> 100 µM (inactive)
same,GI50,[44],> 100 µM (inactive)
same,GI50,[45],> 100 µM (inactive)
same,GI50,[46],> 100 µM (inactive)
same,GI50,[47],> 100 µM (inactive)
same,GI50,[48],> 100 µM (inactive)
same,GI50,[49],> 100 µM (inactive)
same,GI50,[50],> 100 µM (inactive)
same,GI50,[51],> 100 µM (inactive)
same,GI50,[52],> 100 µM (inactive)
same,GI50,[53],> 100 µM (inactive)
same,GI50,[54],> 100 µM (inactive)
same,GI50,[55],> 100 µM (inactive)
same,GI50,[56],> 100 µM (inactive)
